# Measured values published in ChEMBL document CHEMBL1201862, “PubChem BioAssay data set” (2004).
# Active and inactive are the calls of the source.
# Assays:
# NADPH oxidase 1 = NADPH oxidase 1 (Homo sapiens, UniProt Q9Y5S8); assay type: functional, cell-based;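 further: Cell-based assay with luminescence read-out, IC50 derived from inhibitor dose-response curves; intracellular ROS from endogenous NOX1 in intact HT29 colon cancer cells; potency of inhibitors that lower the ROS luminescence signal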
# Cytochrome P450 2C19 = Cytochrome P450 2C19 (Homo sapiens, UniProt P33261); assay: qHTS Assay for Inhibitors and Substrates of Cytochrome P450 2C19. [Related pubchem assays: 410 ]; assay type: ADME; conditions: read-out: Potency
# [1] = biological target: Heat shock protein HSP 90-alpha (Homo sapiens, UniProt P07900); assay type: functional, organism-based
# [2] = biological target: T1, Long-chain-fatty-acid--AMP ligase FadD28 (Mycobacterium tuberculosis, UniProt P9WQ59); assay: Fluorescence polarization aasay to screen for inhibitors that compete for the binding of FadD28 to a bisubstrate Measured in Biochemical System Using Plate Reader - 2147-01_Inhibitor_Dose_CherryPick_Activity.; assay type: functional, Mycobacterium tuberculosis H37Rv
# T1 sequence (P9WQ59 whole entry): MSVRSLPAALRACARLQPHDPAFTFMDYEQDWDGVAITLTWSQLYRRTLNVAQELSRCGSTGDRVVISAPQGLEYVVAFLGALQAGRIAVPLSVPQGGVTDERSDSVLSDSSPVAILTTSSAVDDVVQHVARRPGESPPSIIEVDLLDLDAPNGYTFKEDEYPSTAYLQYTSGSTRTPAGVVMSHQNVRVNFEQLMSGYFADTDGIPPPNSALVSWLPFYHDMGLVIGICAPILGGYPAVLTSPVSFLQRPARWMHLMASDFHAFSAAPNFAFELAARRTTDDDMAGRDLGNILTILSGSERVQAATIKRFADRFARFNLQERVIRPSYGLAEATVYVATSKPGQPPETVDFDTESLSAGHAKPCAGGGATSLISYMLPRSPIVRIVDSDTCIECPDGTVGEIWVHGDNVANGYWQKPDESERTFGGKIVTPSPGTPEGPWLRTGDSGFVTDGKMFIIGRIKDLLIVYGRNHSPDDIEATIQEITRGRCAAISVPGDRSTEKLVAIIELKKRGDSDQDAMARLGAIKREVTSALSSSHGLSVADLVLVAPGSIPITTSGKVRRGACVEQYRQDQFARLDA
# [3] = biological target: Induced myeloid leukemia cell differentiation protein Mcl-1 (Homo sapiens, UniProt Q07820); assay: blockers of MCL1 binding to BIM peptide – biochemical, fluorescence polarization, BIM-BH3 peptide, 1536-well, dose response (AID 2217)
# [4] = biological target: T2, RNA-binding protein pos-1 (Caenorhabditis elegans, UniProt G5EF15); assay: disruptors of C. elegans POS-1 RNA interaction – biochemical, fluorescence polarization, dose response (AID 1964);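 further: purified POS-1 fused to maltose binding protein made in E. coli; potency of compounds blocking POS-1 binding to fluorescent RNA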
# T2 sequence (G5EF15 whole entry): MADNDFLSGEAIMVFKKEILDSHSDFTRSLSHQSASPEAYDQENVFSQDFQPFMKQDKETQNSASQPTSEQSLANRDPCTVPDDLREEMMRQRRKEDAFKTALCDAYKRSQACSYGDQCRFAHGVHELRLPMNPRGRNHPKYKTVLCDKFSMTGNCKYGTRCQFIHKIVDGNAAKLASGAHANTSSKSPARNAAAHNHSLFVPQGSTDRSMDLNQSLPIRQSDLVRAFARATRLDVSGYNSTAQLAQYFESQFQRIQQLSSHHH
# Bcl-2-like protein 1 = Bcl-2-like protein 1 (Homo sapiens, UniProt Q07817); assay: blockers of BCLXL peptide binding – biochemical, fluorescence polarization, 1536-well, selectivity assay for MCL1 inhibitor project, dose response (AID 2218)
# [5] = biological target: T3, Zinc finger protein mex-5 (Caenorhabditis elegans, UniProt Q9XUB2); assay: potency of MEX-5 RNA-binding blockers – biochemical, C. elegans, fluorescence polarization, dose response (AID 1960)
# T3 sequence (Q9XUB2 whole entry): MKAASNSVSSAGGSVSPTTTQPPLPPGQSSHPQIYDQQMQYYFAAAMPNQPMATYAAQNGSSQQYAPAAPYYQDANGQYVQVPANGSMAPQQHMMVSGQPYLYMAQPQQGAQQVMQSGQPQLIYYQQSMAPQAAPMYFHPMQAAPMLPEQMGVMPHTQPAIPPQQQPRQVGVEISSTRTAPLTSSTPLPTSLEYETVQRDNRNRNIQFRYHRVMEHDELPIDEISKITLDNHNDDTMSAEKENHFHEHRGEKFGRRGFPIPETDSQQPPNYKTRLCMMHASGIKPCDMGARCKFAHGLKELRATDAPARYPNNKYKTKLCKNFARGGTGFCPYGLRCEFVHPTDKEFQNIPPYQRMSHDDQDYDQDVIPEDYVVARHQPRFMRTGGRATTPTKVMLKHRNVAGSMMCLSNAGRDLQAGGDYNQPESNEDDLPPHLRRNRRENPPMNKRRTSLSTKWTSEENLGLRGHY
# [6] = biological target: Aryl hydrocarbon receptor (Homo sapiens, UniProt P35869); assay: Luminescence-based cell-based high throughput dose response assay for activators of the Aryl Hydrocarbon Receptor (AHR). [Related pubchem assays: 2796 (Primary screen (AHR activators in singlicate)), 2845 (Confirmation screen (AHR activators in triplicate)), 434939 (Counterscreen (PXR activators in triplicate)), 2804 (Summary (AHR activators))]; assay type: ADME
# [7] = Luminescence Cell-Based Dose Confirmation HTS to Identify Activators of 5'UTR Stem-Loop Driven Alpha-Synuclein mRNA Translation in H4 Neuroglioblastoma Cells. [Related pubchem assays: 1829 (Project Summary), 1814 (Primary HTS)]; assay type: functional
# Estrogen receptor beta = Estrogen receptor beta (Homo sapiens, UniProt Q92731); assay: blockers of SRC-3 recruitment to ERβ – biochemical, ELISA, streptavidin-HRP readout, orthogonal assay, confirmation (AID 1060)
# H4 = assay: Luminescence Cell-Based Dose Response HTS to Identify Activators of 5'UTR Stem-Loop Driven Prion Protein mRNA Translation in H4 Neuroglioblastoma Cells. [Related pubchem assays: 1829 (Project Summary), 1814 (Primary HTS)]; assay type: functional; conditions: Homo sapiens
# [8] = Luminescence Cell-Based Dose Response HTS to Identify Activators of Luciferase Translation or Activity in H4 […] Cells. [Related pubchem assays: 1829 (Project Summary), 1814 (Primary HTS)]; assay type: functional
# Cytochrome P450 3A4 = Cytochrome P450 3A4 (Homo sapiens, UniProt P08684);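 further: CYP3A4 tested as one member of a cytochrome P450 panel screen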
# Large T antigen = Large T antigen (Simian virus 40, UniProt P03070); assay type: functional, Betapolyomavirus macacae;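 further: Confirmatory-stage PubChem screen for compounds that inhibit SV40 T antigen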
# [9] = Luminescence Cell-Based Dose Retest to Confirm Inhibitors of Cancer Stem Cells. [Related pubchem assays (depositor defined):AID2717, AID2721]; assay type: functional; conditions: Homo sapiens
# [10] = NIH3T3 cell viability loss – ATP luminescence, mouse fibroblasts, counter-screen, dose response (AID 2010); assay type: functional, cell-based;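 further: cells exposed to compound for about 90 hours before reading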
# Vero = assay: mammalian cell viability reduction – secondary assay, cytotoxicity control for West Nile virus antiviral project, dose response (AID 1650); assay type: functional; conditions: Chlorocebus sabaeus
# [11] = Trypanosoma cruzi growth suppression in host cells – NIH3T3 host cells, beta-gal luminescence, confirmation (AID 2044); assay type: functional, cell-based;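 further: intracellular parasites grown in NIH/3T3 mouse fibroblasts as host cells; luminescent beta-galactosidase reporter signal from transgenic T. cruzi replicating inside host cells; inhibitors lower the luminescence signal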
# 14-3-3 protein gamma = 14-3-3 protein gamma (Homo sapiens, UniProt P61981); assay: modulators of 14-3-3 gamma client binding – dose response (AID 711); assay type: functional
# Cytochrome P450 2C9 = Cytochrome P450 2C9 (Homo sapiens, UniProt P11712)
# [12] = biological target: T4, Calpain-2 catalytic subunit (Sus scrofa, UniProt P43367); assay: m-calpain protease blockers, concentration series – biochemical, fluorogenic peptide substrate, dose response (AID 1420); assay type: functional
# T4 sequence (P43367 whole entry): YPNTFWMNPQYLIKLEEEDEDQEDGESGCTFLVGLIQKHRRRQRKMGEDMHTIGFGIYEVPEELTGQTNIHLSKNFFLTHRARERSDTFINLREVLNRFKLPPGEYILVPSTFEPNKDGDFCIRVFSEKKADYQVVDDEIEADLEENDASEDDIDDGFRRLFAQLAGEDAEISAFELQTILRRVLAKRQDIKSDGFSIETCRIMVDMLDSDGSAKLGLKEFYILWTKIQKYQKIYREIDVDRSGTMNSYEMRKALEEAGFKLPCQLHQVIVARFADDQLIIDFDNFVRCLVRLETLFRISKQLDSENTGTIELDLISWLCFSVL
# Estrogen receptor = biological target: T5, Estrogen receptor (Homo sapiens, UniProt P03372); assay: ERα coactivator recruitment enhancers – biochemical, TR-FRET, ERα LBD, dose response (AID 737)
# T5 sequence (P03372 whole entry): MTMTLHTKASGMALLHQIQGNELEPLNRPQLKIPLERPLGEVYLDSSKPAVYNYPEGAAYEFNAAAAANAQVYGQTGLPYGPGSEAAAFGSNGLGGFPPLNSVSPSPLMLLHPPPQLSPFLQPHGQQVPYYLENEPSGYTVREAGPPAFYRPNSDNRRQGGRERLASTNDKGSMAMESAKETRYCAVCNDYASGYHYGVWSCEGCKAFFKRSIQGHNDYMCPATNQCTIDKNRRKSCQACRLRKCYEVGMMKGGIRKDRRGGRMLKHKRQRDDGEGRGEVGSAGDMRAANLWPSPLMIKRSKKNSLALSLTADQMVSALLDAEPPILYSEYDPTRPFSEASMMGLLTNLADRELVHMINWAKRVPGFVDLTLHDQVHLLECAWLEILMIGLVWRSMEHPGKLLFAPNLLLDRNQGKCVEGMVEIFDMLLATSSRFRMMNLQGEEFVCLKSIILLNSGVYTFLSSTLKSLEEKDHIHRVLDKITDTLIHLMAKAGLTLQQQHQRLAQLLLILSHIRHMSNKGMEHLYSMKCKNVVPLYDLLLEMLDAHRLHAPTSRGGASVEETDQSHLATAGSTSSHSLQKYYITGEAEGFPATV
# INS1 = assay: INS-1E survival protection against cytokine death – cell-based, luminescence, retest, dose response (AID 449756); assay type: functional; conditions: Rattus norvegicus;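 further: cell death triggered by IL-1 beta plus TNF-alpha plus IFN-gamma mixture; protective hits raise ATP signal compared with cytokine alone wells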
# Melanocortin receptor 4 = Melanocortin receptor 4 (Homo sapiens, UniProt P32245); assay type: functional, cell-based;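 further: Cell-based assay with luminescence read-out, confirmatory dose-response testing for agonist activity of biased ligands at MC4R; human U2OS cells with tagged receptor and beta-arrestin; potency of agonists that increase receptor coupling to beta-arrestin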
# Melanocortin receptor 4, sequence (P32245 whole entry): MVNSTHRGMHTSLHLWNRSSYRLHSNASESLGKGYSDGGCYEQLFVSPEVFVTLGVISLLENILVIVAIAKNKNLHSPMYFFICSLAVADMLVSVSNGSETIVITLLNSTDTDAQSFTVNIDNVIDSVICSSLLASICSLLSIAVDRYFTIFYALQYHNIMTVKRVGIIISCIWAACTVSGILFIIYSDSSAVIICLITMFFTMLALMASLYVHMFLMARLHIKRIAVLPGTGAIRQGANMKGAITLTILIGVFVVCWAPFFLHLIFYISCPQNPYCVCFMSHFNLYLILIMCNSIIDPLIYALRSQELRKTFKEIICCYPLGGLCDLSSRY
# Bcl-2-like protein 1, sequence (Q07817 whole entry): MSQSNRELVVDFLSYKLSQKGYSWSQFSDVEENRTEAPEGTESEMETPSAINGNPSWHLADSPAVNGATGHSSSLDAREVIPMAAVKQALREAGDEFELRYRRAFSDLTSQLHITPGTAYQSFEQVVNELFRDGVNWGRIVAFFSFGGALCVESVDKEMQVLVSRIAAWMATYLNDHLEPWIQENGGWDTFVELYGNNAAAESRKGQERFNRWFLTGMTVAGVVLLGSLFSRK
# NADPH oxidase 1, sequence (Q9Y5S8 whole entry): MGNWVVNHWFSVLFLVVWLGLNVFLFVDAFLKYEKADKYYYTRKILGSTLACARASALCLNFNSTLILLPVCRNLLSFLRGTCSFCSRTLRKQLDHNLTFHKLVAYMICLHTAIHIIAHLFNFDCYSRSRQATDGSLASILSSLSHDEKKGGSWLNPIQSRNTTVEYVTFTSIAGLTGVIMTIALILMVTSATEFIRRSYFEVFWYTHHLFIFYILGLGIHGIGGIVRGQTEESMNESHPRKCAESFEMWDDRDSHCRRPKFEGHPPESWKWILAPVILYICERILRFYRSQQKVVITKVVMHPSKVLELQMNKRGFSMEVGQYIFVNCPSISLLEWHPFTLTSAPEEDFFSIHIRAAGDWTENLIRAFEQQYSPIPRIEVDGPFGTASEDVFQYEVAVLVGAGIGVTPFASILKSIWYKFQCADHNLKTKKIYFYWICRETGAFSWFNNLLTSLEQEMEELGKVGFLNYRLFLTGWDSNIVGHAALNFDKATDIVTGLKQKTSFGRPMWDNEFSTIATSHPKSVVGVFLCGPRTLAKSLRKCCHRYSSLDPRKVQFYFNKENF
# 14-3-3 protein gamma, sequence (P61981 whole entry): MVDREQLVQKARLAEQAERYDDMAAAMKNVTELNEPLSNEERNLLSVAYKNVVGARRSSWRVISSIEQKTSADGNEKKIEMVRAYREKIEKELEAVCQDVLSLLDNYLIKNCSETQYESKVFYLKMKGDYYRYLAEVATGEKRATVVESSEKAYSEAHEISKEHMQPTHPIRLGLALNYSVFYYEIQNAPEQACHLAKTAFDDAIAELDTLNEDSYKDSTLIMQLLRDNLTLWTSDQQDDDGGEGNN
# Cytochrome P450 2C19, sequence (P33261 whole entry): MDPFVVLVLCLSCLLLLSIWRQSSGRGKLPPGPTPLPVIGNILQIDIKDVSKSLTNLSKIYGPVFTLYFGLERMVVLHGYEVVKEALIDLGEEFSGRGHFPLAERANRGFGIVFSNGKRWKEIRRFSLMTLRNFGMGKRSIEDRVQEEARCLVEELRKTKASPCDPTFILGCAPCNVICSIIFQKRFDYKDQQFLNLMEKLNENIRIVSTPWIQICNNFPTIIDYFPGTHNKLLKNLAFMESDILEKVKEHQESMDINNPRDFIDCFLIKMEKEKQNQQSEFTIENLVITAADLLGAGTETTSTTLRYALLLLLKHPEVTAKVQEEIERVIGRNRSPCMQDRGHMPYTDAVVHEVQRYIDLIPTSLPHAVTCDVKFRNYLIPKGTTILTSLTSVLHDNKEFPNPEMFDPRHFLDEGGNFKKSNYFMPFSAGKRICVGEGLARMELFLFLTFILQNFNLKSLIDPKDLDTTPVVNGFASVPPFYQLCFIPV
# Aryl hydrocarbon receptor, sequence (P35869 whole entry): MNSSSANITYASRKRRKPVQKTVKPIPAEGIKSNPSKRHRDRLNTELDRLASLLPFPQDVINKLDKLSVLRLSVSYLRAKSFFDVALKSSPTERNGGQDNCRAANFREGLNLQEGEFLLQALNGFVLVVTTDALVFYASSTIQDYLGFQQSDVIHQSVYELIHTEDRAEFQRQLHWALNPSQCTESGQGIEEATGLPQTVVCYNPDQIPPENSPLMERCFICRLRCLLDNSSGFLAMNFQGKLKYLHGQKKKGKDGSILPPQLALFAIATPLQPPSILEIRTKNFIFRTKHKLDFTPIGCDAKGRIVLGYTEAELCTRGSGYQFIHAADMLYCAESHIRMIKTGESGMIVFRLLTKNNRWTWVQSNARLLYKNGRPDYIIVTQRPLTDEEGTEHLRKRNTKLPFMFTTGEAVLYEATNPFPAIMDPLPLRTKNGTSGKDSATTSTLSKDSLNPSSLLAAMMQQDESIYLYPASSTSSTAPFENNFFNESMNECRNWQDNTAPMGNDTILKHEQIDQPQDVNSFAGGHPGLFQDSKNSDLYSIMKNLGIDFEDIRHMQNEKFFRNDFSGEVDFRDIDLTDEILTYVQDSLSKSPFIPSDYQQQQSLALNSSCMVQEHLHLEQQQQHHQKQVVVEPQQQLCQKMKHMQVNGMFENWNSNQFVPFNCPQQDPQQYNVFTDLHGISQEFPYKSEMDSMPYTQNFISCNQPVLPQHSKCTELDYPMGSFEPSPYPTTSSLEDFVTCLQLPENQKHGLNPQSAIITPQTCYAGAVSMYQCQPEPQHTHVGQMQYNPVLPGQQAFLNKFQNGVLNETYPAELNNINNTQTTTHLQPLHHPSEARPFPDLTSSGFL
# Induced myeloid leukemia cell differentiation protein Mcl-1, sequence (Q07820 whole entry, the tested form may be a part): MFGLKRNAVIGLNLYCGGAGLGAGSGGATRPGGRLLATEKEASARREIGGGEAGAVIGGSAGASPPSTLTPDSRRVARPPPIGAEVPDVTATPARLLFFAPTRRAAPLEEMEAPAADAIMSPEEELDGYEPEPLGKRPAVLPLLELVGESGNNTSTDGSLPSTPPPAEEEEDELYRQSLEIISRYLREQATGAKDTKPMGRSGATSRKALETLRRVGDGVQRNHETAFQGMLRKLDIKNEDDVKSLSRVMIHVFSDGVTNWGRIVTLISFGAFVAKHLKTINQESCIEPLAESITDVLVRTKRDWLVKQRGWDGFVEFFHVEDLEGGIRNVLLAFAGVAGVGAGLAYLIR
# Large T antigen, sequence (P03070 whole entry): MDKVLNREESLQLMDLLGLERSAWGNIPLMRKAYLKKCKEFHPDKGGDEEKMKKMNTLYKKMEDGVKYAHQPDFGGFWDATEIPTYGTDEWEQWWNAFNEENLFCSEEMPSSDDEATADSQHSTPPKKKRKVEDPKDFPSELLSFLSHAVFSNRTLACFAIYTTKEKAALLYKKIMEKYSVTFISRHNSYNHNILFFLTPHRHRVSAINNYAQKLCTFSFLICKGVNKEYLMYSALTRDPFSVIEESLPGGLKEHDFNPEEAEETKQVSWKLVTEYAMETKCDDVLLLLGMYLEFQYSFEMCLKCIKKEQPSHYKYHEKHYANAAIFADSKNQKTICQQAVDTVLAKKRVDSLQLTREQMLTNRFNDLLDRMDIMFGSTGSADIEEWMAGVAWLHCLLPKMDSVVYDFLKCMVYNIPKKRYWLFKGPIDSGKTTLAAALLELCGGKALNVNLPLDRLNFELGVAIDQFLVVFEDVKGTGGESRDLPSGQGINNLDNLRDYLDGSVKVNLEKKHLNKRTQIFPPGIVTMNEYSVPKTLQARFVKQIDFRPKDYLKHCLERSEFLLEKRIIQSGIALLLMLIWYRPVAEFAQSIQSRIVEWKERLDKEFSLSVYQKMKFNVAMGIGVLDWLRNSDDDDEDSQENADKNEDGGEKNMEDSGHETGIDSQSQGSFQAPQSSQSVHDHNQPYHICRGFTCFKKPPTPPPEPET
# Cytochrome P450 3A4, sequence (P08684 whole entry): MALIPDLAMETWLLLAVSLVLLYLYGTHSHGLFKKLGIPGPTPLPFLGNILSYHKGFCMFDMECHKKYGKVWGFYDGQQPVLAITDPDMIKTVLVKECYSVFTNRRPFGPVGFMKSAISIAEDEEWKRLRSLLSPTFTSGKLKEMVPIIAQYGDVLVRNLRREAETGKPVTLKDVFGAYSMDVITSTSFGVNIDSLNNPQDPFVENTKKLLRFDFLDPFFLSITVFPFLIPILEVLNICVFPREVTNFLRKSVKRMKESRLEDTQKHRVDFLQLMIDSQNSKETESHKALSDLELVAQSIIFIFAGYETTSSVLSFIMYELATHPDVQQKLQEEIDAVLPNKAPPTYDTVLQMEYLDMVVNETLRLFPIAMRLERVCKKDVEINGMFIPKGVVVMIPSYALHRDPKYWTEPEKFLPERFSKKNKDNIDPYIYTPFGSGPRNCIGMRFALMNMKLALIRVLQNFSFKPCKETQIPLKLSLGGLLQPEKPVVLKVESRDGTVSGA
# Estrogen receptor beta, sequence (Q92731 whole entry): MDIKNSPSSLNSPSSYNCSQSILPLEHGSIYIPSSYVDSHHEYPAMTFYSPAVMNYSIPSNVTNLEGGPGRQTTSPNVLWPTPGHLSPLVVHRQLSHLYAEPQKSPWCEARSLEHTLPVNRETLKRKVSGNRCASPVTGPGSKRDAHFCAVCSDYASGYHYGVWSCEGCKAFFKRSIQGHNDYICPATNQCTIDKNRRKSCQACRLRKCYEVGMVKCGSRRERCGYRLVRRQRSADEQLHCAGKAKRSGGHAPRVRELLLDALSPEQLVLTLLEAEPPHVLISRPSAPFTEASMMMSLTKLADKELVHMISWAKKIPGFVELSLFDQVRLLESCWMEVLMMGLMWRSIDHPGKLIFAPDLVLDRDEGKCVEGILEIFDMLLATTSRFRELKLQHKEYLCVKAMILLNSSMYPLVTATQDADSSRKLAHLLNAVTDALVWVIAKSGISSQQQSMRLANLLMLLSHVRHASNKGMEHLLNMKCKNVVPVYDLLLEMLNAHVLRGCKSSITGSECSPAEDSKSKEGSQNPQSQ
structure (smiles),measurement,setting,value
COc1ccc(-c2nc(-c3ccc(OC)c(OC)c3)[nH]c2-c2ccc(OC)cc2)cc1,IC50,NADPH oxidase 1,> 17 µM (not active)
O=C(CCc1ccc(O)cc1)c1c(O)cc(O)cc1O[C@@H]1O[C@@H](CO)[C@@H](O)[C@@H](O)[C@H]1O,AC50,Cytochrome P450 2C19,6.31 µM (inconclusive)
COc1ccc(OC2C=CC(C#Cc3ccc(Br)cc3)OC2CO)c(C(C)(C)C)c1 (centres undefined),AC50,Cytochrome P450 2C19,3.16 µM (inconclusive)
COc1ccc(C2=CC3=C(Br)C(=O)C(C)(OC(=O)c4cccs4)C(=O)C3=CO2)cc1 (centres undefined),AC50,[1],2.35 µM (active)
same,AC50,[2],> 100 µM (inactive)
same,IC50,[3],16.8 µM (not active)
same,EC50,[4],32.8 µM (active)
same,IC50,Bcl-2-like protein 1,> 109 µM (not active)
same,EC50,[5],29.1 µM (active)
COc1cc(/C=N/NC(=O)c2cccc(NC(=O)c3ccccc3)c2)ccc1O,EC50,[6],5.62 µM (active)
NC(=O)Cn1c(=O)n(Cc2ccco2)c(=O)c2c3c(sc21)CCCCC3,EC50,[7],> 120 µM (not active)
same,IC50,Estrogen receptor beta,< 0.023 µM (not active)
same,EC50,H4,> 120 µM (not active)
same,EC50,[8],> 120 µM (not active)
same,AC50,Cytochrome P450 3A4,25.1 µM (inconclusive)
same,IC50,Large T antigen,33 µM (active)
Cc1ccc2nc(NC(=O)c3cccc(-c4cc5ccccc5oc4=O)c3)sc2c1,AC50,[9],1.71 µM (active)
same,EC50,[10],> 60 µM (not active)
same,CC50,Vero,> 100 µM (active)
same,EC50,[11],1.09 µM (active)
C/C(=N\O)C(=O)NCc1ccccn1,IC50,14-3-3 protein gamma,> 50 µM (not active)
COc1ccccc1-c1nnc(NC(C)=O)s1,AC50,Cytochrome P450 2C9,inconclusive
same,EC50,[6],11 µM (not active)
COc1ccccc1-n1nnnc1SCc1cc2c(cc1Br)OCO2,IC50,[12],1.36 µM (not active)
same,IC50,14-3-3 protein gamma,> 50 µM (not active)
CC(=O)Nc1ccc(/C=N/Nc2c(Cl)cc(Cl)cc2Cl)cc1,IC50,NADPH oxidase 1,> 17 µM (not active)
CC1Cc2ccccc2N1C(=O)CSc1nnc(-c2ccc(S(=O)(=O)N3CCCC3)cc2)o1 (centres undefined),EC50,Estrogen receptor,7.79 µM (active)
Clc1ccc(C[n+]2c(-c3ccccc3)cc(-c3ccccc3)cc2-c2ccccc2)cc1.[O-][Cl+3]([O-])([O-])[O-],EC50,cells,0.173 µM (active)
same,AC50,INS1,2.05 µM (active)
same,EC50,Melanocortin receptor 4,> 89.2 µM (inactive)
same,EC50,[10],> 60 µM (not active)
same,EC50,[11],< 0.1 µM (active)
COc1cc(NC(=O)c2noc3c2CCC3)c(OC)cc1Cl,IC50,[3],11.1 µM (not active)
same,IC50,Bcl-2-like protein 1,> 109 µM (not active)
